Laboratory results from US9695155B2, “Herbicidal substituted pyrimidinyloxy benzene compounds” (E. I. DU PONT DE NEMOURS AND COMPANY, priority 2013, dated 2017).

Assays:
velvetleaf [1] = test: Test C postemergence; type: in vivo, Abutilon theophrasti; conditions: for Plant response rating, Velvetleaf: scale 0 to 100 (0 no effect, 100 complete control)
Method in brief: (§1)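 Injury was assessed visually against controls 13 to 15 days after application, with 0 meaning no effect and 100 full control; missing entries are shown as a dash. Preemergence sprays hit seeded loam–sand soil, postemergence sprays hit 1- to 4-leaf plants.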

johnsongrass = test: Test C preemergence; type: in vivo, Sorghum halepense; conditions: for Johnsongrass plant response rating: preemergence
Method in brief: as §1

barnyardgrass [2] = test: Test A preemergence; type: in vivo, Echinochloa crus-galli; conditions: 1000 g ai/ha, 0 to 100 scale, 0 no effect, 100 complete control
Method in brief: (§2)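 Injury scores run from 0, no effect, to 100, complete control, judged by eye against untreated plants roughly 10 days after treatment. Chemicals carried a surfactant in a non-phytotoxic solvent and went onto loam–sand soil preemergence or onto one- to two-leaf seedlings postemergence.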

oilseed rape = test: Test C postemergence; type: in vivo, Brassica napus; conditions: for Plant response rating, Oilseed Rape: scale 0 to 100 (0 no effect, 100 complete control)
Method in brief: as §1

sedge, umbrella = test: Test B flooded paddy test; type: in vivo, Cyperus difformis; conditions: Flood, 250 g ai/ha; 0 to 100 scale where 0 is no effect and 100 is complete control
Method in brief: (§3)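 Scores from 0 (no effect) to 100 (complete control) are visual comparisons with controls, taken 13 to 15 days after compound was applied into floodwater 3 cm deep around 2-leaf plants.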

galium = test: Test C preemergence; type: in vivo, Galium aparine; conditions: for Galium plant response rating: preemergence
Method in brief: as §1

velvetleaf [3] = test: Test C preemergence; type: in vivo, Abutilon theophrasti; conditions: for Velvetleaf plant response rating: preemergence
Method in brief: as §1

waterhemp = test: Test C postemergence; type: in vivo, Amaranthus rudis; conditions: for Plant response rating, Waterhemp: scale 0 to 100 (0 no effect, 100 complete control)
Method in brief: as §1

large (Lg) crabgrass [4] = test: Test C postemergence; type: in vivo, Digitaria sanguinalis; conditions: for Plant response rating, Crabgrass, Large: scale 0 to 100 (0 no effect, 100 complete control)
Method in brief: as §1

barnyardgrass [5] = test: Test A postemergence; type: in vivo, Echinochloa crus-galli; conditions: 1000 g ai/ha, 0 to 100 scale, 0 no effect, 100 complete control
Method in brief: as §2

rice = test: Test B flooded paddy test; type: in vivo, Oryza sativa; conditions: Flood, 250 g ai/ha; 0 to 100 scale where 0 is no effect and 100 is complete control
Method in brief: as §3

soybean = test: Test C postemergence; type: in vivo, Glycine max; conditions: for Plant response rating, Soybean: scale 0 to 100 (0 no effect, 100 complete control)
Method in brief: as §1

lambsquarters = test: Test C postemergence; type: in vivo, Chenopodium album; conditions: for Plant response rating, Lambsquarters: scale 0 to 100 (0 no effect, 100 complete control)
Method in brief: as §1

corn = test: Test A postemergence; type: in vivo, Zea mays; conditions: 1000 g ai/ha, 0 to 100 scale, 0 no effect, 100 complete control
Method in brief: as §2

large (Lg) crabgrass [6] = test: Test C preemergence; type: in vivo, Digitaria sanguinalis; conditions: for Crabgrass, Large plant response rating: preemergence
Method in brief: as §1

[7] = 16 g ai/ha, postemergence, 0 is no effect, 100 is complete control
[8] = 125 g ai/ha, postemergence, visual rating
[9] = 16 g ai/ha, scale 0 to 100 (0 no effect, 100 complete control)
[10] = 62 g ai/ha, scale 0 (no effect) to 100 (complete control)
[11] = 125 g ai/ha, scale 0 (no effect) to 100 (complete control)
[12] = Preemergence, 31 g ai/ha, scale 0 to 100, 0 no effect, 100 complete control

Structure (SMILES): N#Cc1cn(-c2c(Br)cccc2Oc2ncc(Cl)cn2)nn1 [Compound 116]
- Plant response rating (0 to 100), Velvetleaf (velvetleaf [1]; [7]): 25
- Plant response rating, Velvetleaf (velvetleaf [1]; [8]): 85
- Plant response rating, Velvetleaf (velvetleaf [1]; Postemergence, 62 g ai/ha): 60
- Johnsongrass plant response rating (johnsongrass; [9]): 0
- Johnsongrass plant response rating (johnsongrass; [10]): 55
- Johnsongrass plant response rating (johnsongrass; [11]): 70
- Plant response rating, Johnsongrass (johnsongrass; [12]): 25
- Plant response rating, Barnyardgrass (barnyardgrass [2]): 90
- Plant response rating (0 to 100), Oilseed Rape (oilseed rape; [7]): 5
- Plant response rating, Oilseed Rape (oilseed rape; [8]): 40
- Plant response rating, Oilseed Rape (oilseed rape; Postemergence, 62 g ai/ha): 10
- Plant response rating, Sedge, Umbrella (sedge, umbrella): 30
- Galium plant response rating (galium; [9]): 0
- Galium plant response rating (galium; [10]): 100
- Galium plant response rating (galium; [11]): 100
- Plant response rating, Galium (galium; [12]): 100
- Velvetleaf plant response rating (velvetleaf [3]; [9]): 20
- Velvetleaf plant response rating (velvetleaf [3]; [10]): 100
- Velvetleaf plant response rating (velvetleaf [3]; [11]): 100
- Plant response rating, Velvetleaf (velvetleaf [3]; [12]): 70
- Plant response rating (0 to 100), Waterhemp (waterhemp; [7]): 65
- Plant response rating, Waterhemp (waterhemp; [8]): 95
- Plant response rating, Waterhemp (waterhemp; Postemergence, 62 g ai/ha): 80
- Plant response rating (0 to 100), Crabgrass, Large (large (Lg) crabgrass [4]; [7]): 5
- Plant response rating, Crabgrass, Large (large (Lg) crabgrass [4]; [8]): 30
- Plant response rating, Crabgrass, Large (large (Lg) crabgrass [4]; Postemergence, 62 g ai/ha): 15
- Plant response rating, Barnyardgrass (barnyardgrass [5]): 90
- Plant response rating, Rice (rice): 0
- Plant response rating (0 to 100), Soybean (soybean; [7]): 15
- Plant response rating, Soybean (soybean; [8]): 95
- Plant response rating, Soybean (soybean; Postemergence, 62 g ai/ha): 60
- Plant response rating (0 to 100), Lambsquarters (lambsquarters; [7]): 5
- Plant response rating, Lambsquarters (lambsquarters; [8]): 80
- Plant response rating, Lambsquarters (lambsquarters; Postemergence, 62 g ai/ha): 50
- Plant response rating, Corn (corn): 60
- Crabgrass, Large plant response rating (large (Lg) crabgrass [6]; [9]): 5
- Crabgrass, Large plant response rating (large (Lg) crabgrass [6]; [10]): 100
- Crabgrass, Large plant response rating (large (Lg) crabgrass [6]; [11]): 100
- Plant response rating, Crabgrass, Large (large (Lg) crabgrass [6]; [12]): 100
